Converted amounts (≈) assume the structure as drawn. Where a name gives a salt, the structure may show the parent alone. Read-outs that look alike come from different tables or passages of the source.
Tests used:
MRSA ATCC 43300 [1] = tested on: MRSA ATCC 43300; set-up: method as in PMID 28295316; settings: 4× MIC, cited from earlier work
E. faecium ATCC 35667 = assay: MIC testing (broth dilution, 96-well plate); assay type: cell-based; settings: Enterococcus faecium, ATCC35667
Description: (§1) The MIC of amphenmulin against MRSA, Escherichia coli, Salmonella typhimurium, Enterococcus faecalis, and Enterococcus faecium were determined using tiamulin as controls. MIC values were measured by the method of previous work. Staphylococcus aureus ATCC 29213 was used as the quality control bacteria, and the quality control range was referred to the Clinical and Laboratory Standards Institute (CLSI). The bacteria solution was diluted to ~10^6 CFU/mL with Mueller–Hinton (MH) broth for MRSA, Escherichia coli and Salmonella typhimurium while Trypticase Soy Broth for Enterococcus faecalis and Enterococcus faecium. Drugs were dissolved in an aqueous solution of N, N-dimethylformamide (DMF) at a concentration of 2560 µg/mL, and then diluted with broth to prepare working solution (1280 µg/mL). The drug susceptibility testing was performed in 96-well plate. A total of 20 µL of working solution was added into column 1 and well mixed as a 10-fold dilution, following which Serial 2-fold dilutions were prepared to provide concentration ranges of 128–0.0078 µg/mL. Blank broth (no cultures) and bacteria solution (drugs replaced by blank solvent) were set as drug-free controls. Each 96-well plate was cultured at 37 °C for 24 h. The MIC value is the lowest concentration of amphenmulin which inhibits the visible growth of bacteria. The experiment was repeated three times.

E. coli ATCC 25922 = assay: MIC testing (broth dilution, 96-well plate); assay type: cell-based; settings: Escherichia coli, ATCC25922
Description: as §1

E. faecalis ATCC 29212 = assay: MIC testing (broth dilution, 96-well plate); assay type: cell-based; settings: Enterococcus faecalis, ATCC29212
Description: as §1

[2] = tested on: S. typhimurium ATCC 14028; assay: MIC testing (broth dilution, 96-well plate); assay type: cell-based; settings: Salmonella enterica
Description: as §1

S. aureus ATCC 29213 = assay: MIC testing (broth dilution, 96-well plate); assay type: cell-based; settings: Staphylococcus aureus, ATCC29213
Description: as §1

MRSA N54 = assay: MIC testing, clinical strain; assay type: cell-based; settings: Staphylococcus aureus
Text: (§2) Methicillin-resistant Staphylococcus aureus (MRSA) ATCC 43300, Staphylococcus aureus ATCC 29213, Escherichia coli ATCC 25922, Salmonella typhimurium ATCC 14028, Enterococcus faecalis ATCC 29212, and Enterococcus faecium ATCC 35667 were obtained from the China Institute of Veterinary Drug Control (Beijing, China). Five clinical strains of MRSA (N7, N9, N20, N30, and N54) were isolated from diseased pig tissues of South China Agricultural University and Foshan University Animal Hospital. All clinical strains were identified as MRSA by Gram stain, catalase reaction, coagulase test, staphylococcus API identification system test, MecA gene test, and methicillin MIC test.
as §1

MRSA N20 = assay: MIC testing, clinical strain; assay type: cell-based; settings: Staphylococcus aureus
Text: as §2, §1

MRSA N30 = assay: MIC testing, clinical strain; assay type: cell-based; settings: Staphylococcus aureus
Text: as §2, §1

MRSA N7 = assay: MIC testing, clinical strain; assay type: cell-based; settings: Staphylococcus aureus
Text: as §2, §1

MRSA N9 = assay: MIC testing, clinical strain; assay type: cell-based; settings: Staphylococcus aureus
Text: as §2, §1

MRSA ATCC 43300 [3] = assay: MRSA wound infection model: wound size; assay type: in vivo, mice; settings: after treatment for three days; 100 μL drug (3 mg/mL) on the wound
Description: (§3) Six weeks SPF-ICR female mice were used for this study. The Experimental model, inducted of inflammatory in mice by skin excision, was established referring to existing methods with some alterations. The mice were anesthetized with the intravenous injection of 1% sodium pentobarbital. After their hair on the back was shaved, the mice were anesthetized and the back skin was perforated with a biopsy perforator at a depth of fascia injury. The inoculum (50 μL), containing 10^9 CFU/mL of the indicated microorganism (MRSA ATCC 43300), was applied on the wound for three times at 30 min intervals. 100 μL drug (3 mg/mL) was administrated on the wound at 1 h after inoculation for three consecutive days. A total of 100 μL blank matrix was given to the infected control group and the non-infected group in the same way. The wound was wrapped with sterile gauze. During the treatment, all mice were kept individually and free to eat and drink.
The wounds were examined on day 1 and days 3 after treatment. The area of wound were measured according to previous reports with some modifications. In each group, six mice were taken out and anesthetized to take photos and measure the size of the wound as the results.

MRSA ATCC 43300 [4] = assay: MRSA wound infection model: wound bacterial burden; assay type: in vivo, mice
Description: as §3
At the end of the examination, mice were anesthetized and killed. Tissue samples, reaching to the muscle membrane, were removed from the middle of the wound surface and homogenized in 0.9% saline. Serially diluted aliquots of homogenate were cultured on high-salt mannitol agar plate at 37 °C for 24 h. The log of the colony number was used for statistical analysis.

| MIC (E. faecium ATCC 35667) [µg/mL] | MIC (E. coli ATCC 25922) [µg/mL] | MIC (E. faecalis ATCC 29212) [µg/mL] | MIC [2] [µg/mL] | MIC (S. aureus ATCC 29213) [µg/mL] | MIC (MRSA N54) [µg/mL] | MIC (MRSA N20) [µg/mL] | MIC (MRSA N30) [µg/mL] | MIC (MRSA N7) [µg/mL] | MIC (MRSA N9) [µg/mL] | SMILES | PAE (MRSA ATCC 43300 [1]; exposure for 1 h) [h] | PAE (MRSA ATCC 43300 [1]; exposure for 2 h) [h] | wound area (MRSA ATCC 43300 [3]) [cm^2] | number of bacteria in wound tissue vs infected group (MRSA ATCC 43300 [4]; one day after treatment, p < 0.05) | number of bacteria in wound tissue (MRSA ATCC 43300 [4]; three days after treatment, 100 μL drug (3 mg/mL) on the wound) [log10 CFU/mL] |
| --- | --- | --- | --- | --- | --- | --- | --- | --- | --- | --- | --- | --- | --- | --- | --- |
| 2 (≈ 4.05 µM) | > 128 | > 128 | > 128 | 0.5 (≈ 1.01 µM) | 0.5 (≈ 1.01 µM) | 32 (≈ 64.8 µM) | 32 (≈ 64.8 µM) | 16 (≈ 32.4 µM) | 0.5 (≈ 1.01 µM) | C=C[C@]1(C)C[C@@H](OC(=O)CSCCN(CC)CC)[C@]2(C)[C@H](C)CC[C@]3(CCC(=O)[C@H]32)[C@@H](C)[C@@H]1O [Tiamulin, reference compound] | 1.90 | 2.04 |  |  |  |
|  |  |  |  |  |  |  |  |  |  | CN[C@H](CC(C)C)C(=O)N[C@H]1C(=O)N[C@@H](CC(N)=O)C(=O)N[C@H]2C(=O)N[C@H]3C(=O)N[C@H](C(=O)N[C@H](C(=O)O)c4cc(O)cc(O)c4-c4cc3ccc4O)[C@H](O)c3ccc(c(Cl)c3)Oc3cc2cc(c3O[C@@H]2O[C@H](CO)[C@@H](O)[C@H](O)[C@H]2O[C@H]2C[C@](C)(N)[C@H](O)[C@H](C)O2)Oc2ccc(cc2Cl)[C@H]1O [vancomycin, vancomycin hydrochloride, reference compound] |  |  | 0.44 ± 0.07 | significant decrease | 4.25 ± 0.57 |

— article PMC7071076, “Antibacterial Activity and Pharmacokinetic Profile of a Promising Antibacterial Agent: 22-(2-Amino-phenylsulfanyl)-22-Deoxypleuromutilin” (Molecules, 2020)
